Columns and labels:
Type in all cases: cell-based
HEK293T cells [1] = assay: Screening pro-apoptotic toxins: Incucyte confluency over 11 days
Procedure: (§1) Cell engineering and assessment: 5,000 HEK293T cells were plated in a 96-well flat bottom TC treated plate. Cells were transduced same day with 5,000 pg of specified constructs (based on p24 titer). Plates were transferred to the Incucyte where images of the cell layer were captured at 4 images per well every 2 hours over the course of 11 days with 10× objective. Confluency was calculated using the Incucyte basic pipeline software to map phase overlay. Cells were split down to 5,000 cells per well on day 4.
Cells were then lentivirally transduced to express the indicated cell-death inducing toxin.

[2] = tested on: HEK293T cell line TL06776 (SB04397); assay: ACP repression of toxins: Incucyte confluency over 7 days; conditions: BAX expressed in HEK293T cells that do not express the ACP
Procedure: as §1, with “Plate” for “Plates were”, “7” for “11”, “overlay in each well.” for “overlay. Cells were split down to 5,000 cells per well on day 4.”
Stable cell lines were generated to express an ACP including a transcriptional repressor. Cells were then lentivirally transduced to express the cell-death inducing toxin BAX or iCasp-9 under control of an ACP responsive promoter. The ACP transcriptional repressor includes a degron that in response to addition of an IMiD promotes ubiquitin pathway-mediated degradation of the peptides. Upon IMiD addition, degradation of the repressor leads to expression of the cell-death inducing peptide (see System 3; degron-tagged transcriptional repressor), as described in Example 1. […]
The cell line TL06776 was assessed following expression of degron domain-ZF-minKrab (SB04397) and percent confluency was quantified from pictures taken every 2 hours over course of 7 days in triplicate. […] Viability was further assessed as the ratio of confluency of a given sample relative to the confluency of non-transduced samples.

HEK293T cells [3] = assay: Mifepristone-induced dimerization of iCasp9: annexin V / Sytox Red staining by flow cytometry; conditions: cells transduced with SB03080, 10 uM Mifepristone, 24 hours
Procedure: Cell engineering and assessment: 24 hours before transduction 50,000 HEK293T cells were plated on a 24-well dish. Next day, cells were transduced with 50,000 pg of SB03080 (Progesterone receptor domain-Gly-Ser linker-iCasp9-IRES-red fluorescent protein) (based on p24 titer). Transduced cells were split into drug free media or media with 10 uM of Mifepristone 48 hours after transduction. 24 hours later, samples were stained for annexin V, a marker of apoptosis, and Sytox Red a live/dead stain and quantified by flow cytometry.
Cells were lentivirally transduced to express the toxin Caspase-9 with an IRES-red fluorescent protein (mKate) expressed under control of an SFFV promoter. The Caspase-9 protein includes a progesterone receptor domain. Upon Mifepristone addition, monomers of pro-apoptotic Caspase-9 oligomerize through binding of the progesterone receptor domain to Mifepristone (see FIG. 3A and System 1; chemical inducer of dimerization that activates the pro-cell death-inducing protein), as described in Example 1.

Molecule | decline in viability of a heterogeneous population (HEK293T cells [1]) | decline in viability [2] | cell death (both apoptotic and by live/dead) (HEK293T cells [3])
Bax: cell-death inducing toxin expressed from constructs SB05403 / SB05406 | ≤ 70% | 70% | –
CC#C[C@]1(O)CC[C@H]2[C@@H]3CCC4=CC(=O)CCC4=C3[C@@H](c3ccc(N(C)C)cc3)C[C@@]21C [Mifepristone] | – | – | increased cell death
Smac/Diablo: cell-death inducing toxin expressed from constructs SB05405 / SB05408 (protein, Description of Unknown: Smac/DIABLO sequence, cell-death inducing toxin expressed from constructs SB05405 / SB05408) MAALKSWLSRSVTSFFRYRQCLCVPVVANFKKRCFSELIRPWHKTVTIGFGVTLCAVPIAQKSEPHSLSSEALMRRAVSLVTDSTSTFLSQTTYALIEAITEYTKAVYTLTSLYRQYTSLLGKMNSEEEDEVWQVIIGARAEMTSKHQEYLKLETTWMTAVGLSEMAAEAAYQTGADQASITARNHIQLVKLQVEEVHQLSRKAETKLAEAQIEELRQKTQEEGEERAESEQEAYLRED | did not | – | –

Reference: patent US20230405144A1, “INDUCIBLE CELL DEATH SYSTEMS” (priority 2020, published 2023)
